Measurements taken from PMC7811125, “Red-shifted click beetle luciferase mutant expands the multicolor bioluminescent palette for deep tissue imaging” (iScience, 2020).
Where a name gives a salt, the structure may show the parent alone.

Molecular target: T1, Akaluc (Photinus pyralis, UniProt P08659)
T1 construct: Akaluc, multiply mutated firefly luciferase; stably expressed in HEK cells
Assay: live-cell bioluminescence imaging
Assay type: cell-based
Settings: HEK cells expressing Akaluc; 0.1 mM substrate; 660 nm filter

T1 sequence (P08659 whole entry): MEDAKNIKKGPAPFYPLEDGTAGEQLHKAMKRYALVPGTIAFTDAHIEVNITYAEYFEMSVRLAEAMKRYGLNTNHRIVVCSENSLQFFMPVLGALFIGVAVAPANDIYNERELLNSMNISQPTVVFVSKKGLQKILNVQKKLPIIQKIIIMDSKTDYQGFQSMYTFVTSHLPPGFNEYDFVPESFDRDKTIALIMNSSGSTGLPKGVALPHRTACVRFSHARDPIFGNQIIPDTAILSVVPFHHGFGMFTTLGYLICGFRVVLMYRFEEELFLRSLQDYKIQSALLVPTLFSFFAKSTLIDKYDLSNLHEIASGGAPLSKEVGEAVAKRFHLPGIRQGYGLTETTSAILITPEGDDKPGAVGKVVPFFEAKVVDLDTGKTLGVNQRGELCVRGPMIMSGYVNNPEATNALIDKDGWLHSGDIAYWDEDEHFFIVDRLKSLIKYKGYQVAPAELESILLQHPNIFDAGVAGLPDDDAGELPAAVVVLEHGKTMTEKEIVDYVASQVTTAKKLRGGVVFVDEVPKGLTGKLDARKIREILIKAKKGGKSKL

CN(C)c1ccc(/C=C/C=C/C2=N[C@@H](C(=O)O)CS2)cc1 [AkaLumine-HCl]
live-cell bioluminescence imaging: Akaluc yielded the brightest photon emission with AkaLumine-HCl
